Test [1] concerns human iPS cells (QHJI01 line and 1231A3 line). As to the kind of experiment: MEK inhibitors PD184352, U0126, TAK-733, AZD-8330 in first step (Example 10). Format: cell-based. The conditions noted are these: 6 days; 1 μM PD0325901; 1.5, 3, 6 μM PD184352; 5, 10 μM U0126; 0.3 μM TAK-733; 0.3 μM AZD-8330; day 49 and day 50 of culture. From the text: The medium used was “STEMFIT™” AK03N medium (Ajinomoto Co., Inc.) (hereinafter AK03N medium).

For test [2], the system named is human iPS cells (QHJI01 line). As to the kind of experiment: Differentiation induction effect of Nodal or Wnt signal transduction pathway inhibitor alone in second step (Example 12). Format: cell-based. Particulars: second step day 1 to day 12 with 5 μM SB-431542 and/or 3 μM CKI-7, after first step with 1 μM PD0325901 for 6 days; day 43 of culture. From the text: (§1) 2014 Jan. 8; 4: 3594”. The medium used was “STEMFIT™” AK03N medium (Ajinomoto Co., Inc.) (hereinafter AK03N medium).
In the second step, the following 3 kinds of media were used.

The test system of test [3] is human iPS cells (201B7 line and 1231A3 line). As to the kind of experiment: Production of RPE cells including combined treatment step of MEK inhibitor and/or FGF receptor inhibitor and various inhibitors or agonist (Example 3). It is filed as cell-based. The conditions noted are these: first step 6 days in AK03 medium; observed 38 to 47 days of culture; FIG. 7.
Method: (§2) The medium used was “STEMFIT™” AK03 medium (Ajinomoto Co., Inc.) (hereinafter AK03 medium).
Production of retinal pigment epithelial (RPE) cells including a combined treatment step of MEK inhibitor and/or FGF receptor inhibitor, and various inhibitors, signal transduction pathway inhibitor or signal transduction pathway agonist was performed as follows. iPS cells under culture for maintaining undifferentiated state were treated with 0.5×TrypLE select, dissociated using a cell scraper, dispersed to single cells by pipetting, seeded in a 6-well culture plate coated with iMatrix-511 (Nippi) (0.5 μg/cm^2) at 1.2×10^4 cells per 1 well and cultured in a ROCK inhibitor [10 μM Y-27632 (Wako Pure Chemical Industries, Ltd.)]-containing AK03 medium under 37° C., 5% CO2 conditions. The next day of cell seeding, PD0325901 (SIGMA) (final concentration 1 μM) as an MEK inhibitor, PD173074 (SIGMA) (final concentration 100 nM) as an FGF receptor inhibitor, LDN193189 (STEMGENT) (final concentration 100 nM) as a BMP receptor inhibitor, SAG (Enzo Life Sciences) (final concentration 30 nM) as an Shh signal transduction pathway agonist, and Go6983 (SIGMA) (final concentration 2 μM) as a PKC inhibitor in the combination shown in FIG. 7 were added to the medium (start of the first step) and the cells were exposed thereto for 6 days (completion of the first step). […]
Test [4] concerns human iPS cells (QHJI01 line). As to the kind of experiment: Number of days of exposure of each inhibitor in first step (Example 5). Format: cell-based. The conditions noted are these: day 48 of culture; for brown-black cell population: 4 days-6 days of exposure; for proportion of cells that developed color in the whole well versus number of exposure days: exposure 1 day to 6 days; for brown-black cell populations: exposure for not less than 2 days, PD0325901 1 μM or PD173074 100 nM.
Text: as §1

Test [5] has as its system human iPS cells (QHJI01 line). As to the kind of experiment: Inhibitor concentrations in MEK inhibitor or FGF receptor inhibitor treatment step (Example 8). It is filed as cell-based. Particulars: 6 days, day 36 and day 49 of culture.
Text: as §1

Test [6] concerns human iPS cells (201B7 line and 1231A3 line). As to the kind of experiment: Production of RPE cells from human iPS cells including FGF receptor inhibitor treatment step (Example 2). It is filed as cell-based. Particulars: PD173074 100 nM. From the text: In one embodiment, to study the effect of the FGF receptor inhibitor in a medium free of a factor for maintaining undifferentiated state (bFGF), StemSure hPSC Medium Δ (Wako Pure Chemical Industries, Ltd.) (hereinafter StemSure hPSC Medium Δ w/o bFGF) not added with bFGF was used.

The test system of test [7] is human iPS cells (QHJI01 line and 1231A3 line). As to the kind of experiment: FGF receptor inhibitor SU5402 in first step (Example 11). It is filed as cell-based. The conditions noted are these: 6 days; 100 nM PD173074; 5, 10, 20 μM SU5402; day 49 of culture.
Text: as §1

Test [8] deals with human iPS cells (Ff-I01 line and QHJI01 line). As to the kind of experiment: Production of RPE cells including MEK inhibitor or FGF receptor inhibitor treatment step using iPS cells Ff-I01, QHJI01 (Example 4). Format: cell-based. Particulars: PD0325901 1 μM or PD173074 100 nM, 6 days, AK03N medium; day 43 of culture; both Ff-I01 and QHJI01 lines.
Text: as §1

The next test has as its system RPE65, BEST1, CRALBP. As to the kind of experiment: RT-PCR of retinal pigment epithelial cell markers in produced RPE cells (Example 14). It is filed as cell-based, human. The conditions noted are these: PD0325901 1 μM or PD173074 100 nM, 6 days; cells collected day 43 of culture. The procedure:
After observation on day 43 of culture, the cells were collected, RNA was extracted and RT-PCR was performed. RNeasy Micro Kit (QIAGEN) was used for RNA extraction, Oligo (dT)12-18 Primer (Invitrogen) and SuperScript III Reverse Transcriptase (Invitrogen) were used for reverse transcription reaction, and Blend Taq-Plus- (TOYOBO) was used for PCR. The primer sequences of RPE65, BEST1, CRLBP, GAPDH are as described below. […] NO: 1), […] NO: 2), […] NO: 3), […] NO: 4), CRALBP-[…] NO: 5), CRALBP-[…] NO: 6), […] NO: 7), […] NO: 8). The number of cycles of the PCR reaction was 30 cycles for RPE65, BEST1, GAPDH, and 35 cycles for CRALBP. PCR products were detected as a single band by agarose gel electrophoresis at near 369 bp for RPE65, near 261 bp for BEST1, near 341 bp for CRALBP, and near 452 bp for GAPDH. As a positive control, primary human RPE (hRPE) was used and, as a negative control, iPS cells (undifferentiated iPSC) cultured under conditions for maintaining undifferentiated state were used.

Test [9] concerns human iPS cells (1231A3 line). As to the kind of experiment: Production of RPE cells including MEK inhibitor or FGF receptor inhibitor treatment step, plate observation (Example 14). Format: cell-based. The conditions noted are these: PD0325901 1 μM or PD173074 100 nM, 6 days; day 43 of culture.
Text: as §1

Test [10] relates to human iPS cells (QHJI01 line). As to the kind of experiment: Seeded cell number in transition of first step to second step (Example 9). It is filed as cell-based. Particulars: all seeded cell number (0.2, 0.4, 0.6, 1.0, 2.0, or 4.0×10^4 cells/cm^2) at start of second step; PD0325901 1 μM or PD173074 100 nM, 6 days; day 49 of culture.
Text: as §1

Test [11] relates to human iPS cells (1231A3 line). As to the kind of experiment: MEK inhibitor exposure period in MEK inhibitor treatment step (Example 6). Format: cell-based. The conditions noted are these: PD0325901 1 μM, day 37 of culture.
Method: as §2
Production of retinal pigment epithelial (RPE) cells including an MEK inhibitor treatment step was performed as follows. iPS cells under culture for maintaining undifferentiated state were treated with 0.5×TrypLE select (mixture of equal amounts of TrypLE select (Life Technologies) and 0.5 mM EDTA/PBS(−)), dissociated using a cell scraper, dispersed to single cells by pipetting, seeded in a 6-well culture plate coated with iMatrix-511 (Nippi) (0.5 μg/cm^2) at 1.2×10^4 cells per 1 well and cultured in a ROCK inhibitor [10 μM Y-27632 (Wako Pure Chemical Industries, Ltd.)]-containing AK03 medium under 37° C., 5% CO2 conditions. On the next day of seeding, 4 days later or 6 days later, PD0325901 (SIGMA) (final concentration 1 μM) as an MEK inhibitor was added to the AK03 medium (start of the first step) and the cells were exposed thereto for 6 days, 3 days or 1 day (completion of the first step). In addition, cells exposed to MEK inhibitor for 6 days were treated with 0.5×TrypLE select, dissociated using a cell scraper, dispersed to single cells by pipetting, seeded in a 6-well culture plate coated with iMatrix-511 (Nippi) (0.5 μg/cm^2) at 0.8×10^4 cells per 1 well and further cultured for 7 days in AK03 medium containing Y-27632 (final concentration 10 μM) and PD0325901 (final concentration 1 μM) under 37° C., 5% CO2 conditions, whereby the cells were exposed to the MEK inhibitor for 13 days (completion of the first step). Thereafter, the cells were treated with 0.5×TrypLE select, dissociated using a cell scraper, dispersed to single cells by pipetting, seeded in a 6-well culture plate coated with iMatrix-511 (0.5 μg/cm^2) at 1.2×10^6 cells per 1 well and cultured under 37° C., 5% CO2 conditions (start of the second step). […]
For test [12], the system named is human iPS cells (201B7 line and 1231A3 line). As to the kind of experiment: Production of RPE cells from human iPS cells including MEK inhibitor treatment step (Example 1). It is filed as cell-based.
Method: The medium used was “STEMFIT™” AK03 medium (Ajinomoto Co., Inc.) (hereinafter AK03 medium) or Essential 8 medium (Life Technologies).
Production of retinal pigment epithelial (RPE) cells including an MEK inhibitor treatment step was performed as follows. iPS cells under culture for maintaining undifferentiated state were treated with 0.5×TrypLE select (mixture of equal amounts of TrypLE select (Life Technologies)) and 0.5 mM EDTA/PBS(−)), dissociated using a cell scraper, dispersed to single cells by pipetting, seeded in a 6-well culture plate coated with iMatrix-511 (Nippi) (0.5 μg/cm^2) at 1.2×10^4 cells per 1 well, and cultured in an AK03 medium or Essential 8 medium containing a ROCK inhibitor [10 μM Y-27632 (Wako Pure Chemical Industries, Ltd.)] under 37° C., 5% CO2 conditions. On the next day of seeding, PD0325901 (SIGMA) as an MEK inhibitor was added to the AK03 medium at a final concentration of 1 μM or Essential 8 medium at a final concentration of 0.03 μM (start of the first step) and the cells were exposed thereto for 6 days (completion of the first step). […]

On to `Cc1cc(C(=O)NOCCO)c(Nc2ccc(I)cc2F)n(C)c1=O` [AZD-8330, 2-(2-fluoro-4-iodophenylamino)-N-(2-hydroxyethoxy)-1,5-dimethyl-6-oxo-1,6-dihydropyridine-3-carboxamide], for which the “emergence of brown-black cell population” value in test [1] is given as “emergence of a brown-black cell population could be confirmed over a wide area”.

`NC(=O)c1ccc(-c2nc(-c3ccc4c(c3)OCO4)c(-c3ccccn3)[nH]2)cc1` [NODALi, 4-[4-(1,3-Benzodioxol-5-yl)-5-(pyridin-2-yl)-1H-imidazol-2-yl]benzamide]: in [2], the “emergence of cells showing typical characteristics of RPE cell” value was “emergence of cells showing the same level of typical characteristics of RPE cell such as a brown-black, polygonal, cobblestone-like morphology could be confirmed”.

As for `CCN(CC)CCCCNc1ncc2cc(-c3cc(OC)cc(OC)c3)c(NC(=O)NC(C)(C)C)nc2n1` [PD173074, N-[2-[[4-(Diethylamino)butyl]amino]-6-(3,5-dimethoxyphenyl)pyrido[2,3-d]pyrimidin-7-yl]-N′-(1,1-dimethylethyl)urea], the “emergence of RPE cells showing typical characteristics” value in [3] is recorded as “emergence of RPE cells showing typical characteristics of RPE cell such as a brown-black, polygonal, cobblestone-like morphology could be confirmed”. For the same molecule, the brown-black cell population result in test [4] was “a remarkable increase in the brown-black cell population was seen”. The “proportion of cells that developed color in the whole well versus number of exposure days” value in test [4] is listed as “the proportion of cells that developed color in the whole well increased as the number of exposure day increased up to 6 days of exposure”. Further, the brown-black cell populations entry in [4] is on record as “brown-black cell populations increased”. For the same molecule, the “emergence of brown-black cell population” value in [5] (all FGF receptor inhibitor concentrations (25-400 nM)), in test [7], in test [9] and in test [10] was “emergence of a brown-black cell population could be confirmed over a wide area” throughout. In addition, in test [6] (6 days first step, 201B7, FIG. 5), the “cell morphology by microscopic observation” value is reported as “the cells showed typical characteristics of RPE cell such as a brown-black, polygonal, cobblestone-like morphology”. In addition, the “emergence of brown-black cell population on culture plate” value is “emergence of a brown-black cell population could be confirmed over a wide area” in test [6] (6 days, AK03 medium, Essential 8 medium or StemSure hPSC Medium Δ w/o bFGF, observed 38 to 42 days, 201B7 line and/or 1231A3 line) and “emergence of a brown-black cell population could be confirmed over a wide area” in [8]. Moreover, the “bands of retinal pigment epithelial cell markers RPE65, BEST1, CRALBP by RT-PCR” value in the test with RPE65, BEST1, CRALBP is “clear bands could be confirmed”.

As for `O=C(NOCC1CC1)c1ccc(F)c(F)c1Nc1ccc(I)cc1Cl` [PD184352], in [1], the “emergence of brown-black cell population” value is reported as “emergence of a brown-black cell population could be confirmed over a wide area”.

On to `O=C(NOC[C@H](O)CO)c1ccc(F)c(F)c1Nc1ccc(I)cc1F` [PD0325901, N-[(2R)-2,3-Dihydroxypropoxy]-3,4-difluoro-2-[(2-fluoro-4-iodophenyl)amino]-benzamide], for which the “emergence of RPE cells showing typical characteristics” value in test [3] is “emergence of RPE cells showing typical characteristics of RPE cell such as a brown-black, polygonal, cobblestone-like morphology could be confirmed”. Moreover, the “emergence of brown-black cell population” value in test [1], in test [11] (exposure for 3 days), in [11] (exposure for 6 days), in test [5] (all MEK inhibitor concentrations (0.25-4 μM)), in [9] and in test [10] was “emergence of a brown-black cell population could be confirmed over a wide area” throughout. Besides, the brown-black cell population result in test [4] is on record as “a remarkable increase in the brown-black cell population was seen”. The “proportion of cells that developed color in the whole well versus number of exposure days” value in test [4] is given as “the proportion of cells that developed color in the whole well increased as the number of exposure day increased up to 6 days of exposure”. Also, the brown-black cell populations result in test [4] is “brown-black cell populations increased”. For the same molecule, the “emergence of colored cell population” value in test [11] (exposure for 13 days) is “sufficient emergence of colored cell population was also confirmed”. In addition, the “cells showing typical characteristics of RPE cell” value in test [11] (exposure for one day) was “almost no cell that showed typical characteristics of RPE cell”. The “emergence of brown-black cell population on culture plate” value is listed as “emergence of a brown-black cell population could be confirmed over a wide area” in [8]; “emergence of a brown-black cell population could be confirmed over a wide area” in [12] (PD0325901 1 μM in AK03 medium or 0.03 μM in Essential 8 medium, exposed 6 days, observed 38 to 42 days of culture, both 201B7 and 1231A3 lines). Also, the “cell morphology by microscopic observation” value in test [12] (PD0325901 1 μM, 6 days first step, 201B7, FIG. 2) is recorded as “the cells showed typical characteristics of RPE cell such as a brown-black, polygonal, cobblestone-like morphology”. Further, the “bands of retinal pigment epithelial cell markers RPE65, BEST1, CRALBP by RT-PCR” value in the test with RPE65, BEST1, CRALBP is listed as “clear bands could be confirmed”.

As to `Cc1c[nH]c(C=C2C(=O)Nc3ccccc32)c1CCC(=O)O` [SU5402, 2-[(1,2-Dihydro-2-oxo-3H-indol-3-ylidene)methyl]-4-methyl-1H-pyrrole-3-propanoic acid], the “emergence of brown-black cell population” value in test [7] was “emergence of a brown-black cell population could be confirmed over a wide area”.

Consider `Cn1c(=O)c(F)c(Nc2ccc(I)cc2F)c2c(=O)n(C[C@@H](O)CO)cnc21` [TAK-733, (R)-3-(2,3-dihydroxypropyl)-6-fluoro-5-(2-fluoro-4-iodophenylamino)-8-methylpyrido[2,3-d]pyrimidine-4,7(3H, 8H)-dione], for which the “emergence of brown-black cell population” value in test [1] is listed as “emergence of a brown-black cell population could be confirmed over a wide area”.

With `N#CC(=C(N)Sc1ccccc1N)C(C#N)=C(N)Sc1ccccc1N` [U0126, 1,4-Diamino-2,3-dicyano-1,4-bis[2-aminophenylthio]butadiene], the “emergence of brown-black cell population” value in [1] is reported as “emergence of a brown-black cell population could be confirmed over a wide area”.

Turning to `NCCNS(=O)(=O)c1ccc(Cl)c2ccncc12` [WNTi, N-(2-Aminoethyl)-5-chloroisoquinoline-8-sulfonamide], the “emergence of cells showing typical characteristics of RPE cell” value in [2] is reported as “the brown-black area in the whole well decreased; however, emergence of a sufficient number of cells showing the typical characteristics of RPE cell could be confirmed”.

The record behind these values is patent US12221625B2, “Method for producing retinal pigment epithelial cells” (SUMITOMO PHARMA CO., LTD., priority 2015, dated 2025).
